ChEMBL document CHEMBL1201862, “PubChem BioAssay data set” (2004)
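How tested: cells in 96-well plates exposed to compound for 48 hours at five concentrations. GI50 is the concentration that inhibits growth by half.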 Activity calls are given as the source filed them. No stated cut-off is given here; in the data, active = GI50 up to about 1.1 µM and inactive = higher.

Legend:
Experiment in all cases: inhibition of tumour cell growth, NCI panel, 48 h
[1] = test system: IGROV-1
[2] = test system: OVCAR-4
[3] = test system: CCRF-CEM
[4] = test system: HL-60
[5] = test system: U-251
[6] = test system: BT-549
[7] = test system: SR
[8] = test system: MDA-N
[9] = test system: COLO 205
[10] = test system: DU-145
[11] = test system: NCI-H23
[12] = test system: Hs-578T
[13] = test system: NCI-H460
[14] = test system: HCT-116
[15] = test system: PC-3
[16] = test system: NCI/ADR-RES
[17] = test system: M14
[18] = test system: 786-0
[19] = test system: OVCAR-3
[20] = test system: UACC-62

Compound	GI50 [1]	GI50 [2]	GI50 [3]	GI50 [4]	GI50 [5]	GI50 [6]	GI50 [7]	GI50 [8]	GI50 [9]	GI50 [10]	GI50 [11]	GI50 [12]	GI50 [13]	GI50 [14]	GI50 [15]	GI50 [16]	GI50 [17]	GI50 [18]	GI50 [19]	GI50 [20]
COc1ccc(-c2nnc3n(C)c4ccccc4n3c2=O)cc1	51.5 µM (inactive)	> 100 µM (inactive)	> 100 µM (inactive)	> 100 µM (inactive)	27.7 µM (inactive)	72.4 µM (inactive)	> 100 µM (inactive)	> 100 µM (inactive)	> 100 µM (inactive)	> 100 µM (inactive)	40.1 µM (inactive)	33 µM (inactive)	38.3 µM (inactive)	48.6 µM (inactive)	> 100 µM (inactive)	> 100 µM (inactive)	> 100 µM (inactive)	37.2 µM (inactive)		
O=[N+]([O-])c1cccc2nc3ccccc3c(NCCN(CCO)CCO)c12	0.00578 µM (active)	0.00453 µM (active)		0.0104 µM (active)	0.00391 µM (active)	0.00308 µM (active)	0.00123 µM (active)	0.00143 µM (active)	0.000904 µM (active)	0.00208 µM (active)	0.00222 µM (active)	0.00515 µM (active)	0.000815 µM (active)	0.00114 µM (active)	0.00213 µM (active)	0.128 µM (active)	0.00338 µM (active)	0.00429 µM (active)	0.00536 µM (active)	0.00396 µM (active)
O=c1[nH]c(Nc2nc3ccccc3[nH]2)nc(O)c1Cc1ccccc1	> 100 µM (inactive)	> 100 µM (inactive)	> 100 µM (inactive)	> 100 µM (inactive)	56.8 µM (inactive)	> 100 µM (inactive)	> 100 µM (inactive)	> 100 µM (inactive)	> 100 µM (inactive)	> 100 µM (inactive)	> 100 µM (inactive)	56 µM (inactive)	> 100 µM (inactive)	> 100 µM (inactive)	> 100 µM (inactive)	> 100 µM (inactive)	> 100 µM (inactive)	61.5 µM (inactive)		> 100 µM (inactive)
O=C1C=C2CO[C@H]3OC[C@H](O)[C@@H]1[C@@H]23	> 100 µM (inactive)		19 µM (inactive)	23.6 µM (inactive)	19.7 µM (inactive)	53.1 µM (inactive)	22.6 µM (inactive)	35.2 µM (inactive)	16.4 µM (inactive)	> 100 µM (inactive)	> 100 µM (inactive)	> 100 µM (inactive)	> 100 µM (inactive)	88.1 µM (inactive)	> 100 µM (inactive)	> 100 µM (inactive)	> 100 µM (inactive)	35 µM (inactive)	> 100 µM (inactive)	67.5 µM (inactive)
CC(=O)Nc1ccc(N2C(=O)CS(=O)(=O)C2c2cccc(Oc3ccccc3)c2)cc1 (stereo unspecified)		14.2 µM (inactive)	53.1 µM (inactive)	23.5 µM (inactive)	17.7 µM (inactive)	16.8 µM (inactive)	20.3 µM (inactive)	16.8 µM (inactive)	17.2 µM (inactive)	33.7 µM (inactive)	18.5 µM (inactive)	28.9 µM (inactive)	17.8 µM (inactive)	20.1 µM (inactive)	16.8 µM (inactive)	17.6 µM (inactive)	18 µM (inactive)	17.1 µM (inactive)	17.5 µM (inactive)	13.4 µM (inactive)
CC(=O)O[C@H]1CC[C@H]2[C@@H]3CCC4=C(C(=O)C=CC4(C)OC(C)=O)[C@H]3CC[C@]12C (stereo partly specified)	> 100 µM (inactive)	> 100 µM (inactive)	31.6 µM (inactive)	27.3 µM (inactive)	82.6 µM (inactive)	26.2 µM (inactive)	47.3 µM (inactive)	34.6 µM (inactive)		> 100 µM (inactive)	35.8 µM (inactive)	> 100 µM (inactive)	42.3 µM (inactive)	33.2 µM (inactive)	48 µM (inactive)	43.7 µM (inactive)	46.8 µM (inactive)	86.7 µM (inactive)	47.6 µM (inactive)	23.1 µM (inactive)
S=C(N/N=C/c1ccccn1)N1CCCCC1	< 0.01 µM (active)		< 0.01 µM (active)	< 0.01 µM (active)	< 0.0126 µM (active)	0.0249 µM (active)	< 0.01 µM (active)	0.271 µM (active)	< 0.01 µM (active)	0.243 µM (active)	< 0.01 µM (active)	0.902 µM (active)	< 0.019 µM (active)	< 0.01 µM (active)	< 0.01 µM (active)	< 0.01 µM (active)	< 0.01 µM (active)	< 0.0137 µM (active)	< 0.01 µM (active)	0.0497 µM (active)
CNc1nc(N)nc(Nc2ccc(I)cc2)c1N=O	> 100 µM (inactive)		> 100 µM (inactive)	62.4 µM (inactive)		> 100 µM (inactive)	> 100 µM (inactive)	> 100 µM (inactive)	36.4 µM (inactive)	> 100 µM (inactive)	> 100 µM (inactive)	39.1 µM (inactive)	> 100 µM (inactive)	> 100 µM (inactive)	> 100 µM (inactive)	> 100 µM (inactive)		> 100 µM (inactive)	61 µM (inactive)	48 µM (inactive)
Clc1ccc(OCc2nnc(COc3ccc(OCc4nnc(COc5ccc(Cl)cc5Cl)o4)c(Cl)c3)o2)c(Cl)c1	17.7 µM (inactive)		17.5 µM (inactive)	23.1 µM (inactive)	23 µM (inactive)	69.2 µM (inactive)	20.9 µM (inactive)	47.3 µM (inactive)	24.4 µM (inactive)	71.3 µM (inactive)	48.1 µM (inactive)	42.5 µM (inactive)	72.4 µM (inactive)	44.1 µM (inactive)	29.9 µM (inactive)	24.5 µM (inactive)	76.4 µM (inactive)	30.8 µM (inactive)	25.2 µM (inactive)	40.5 µM (inactive)
S=C(Nc1c2c(nc3ccccc13)CCCC2)Nc1c2c(nc3ccccc13)CCCC2	> 100 µM (inactive)	> 100 µM (inactive)	> 100 µM (inactive)		> 100 µM (inactive)	> 100 µM (inactive)	> 100 µM (inactive)	> 100 µM (inactive)	> 100 µM (inactive)	> 100 µM (inactive)	> 100 µM (inactive)	> 100 µM (inactive)	> 100 µM (inactive)	> 100 µM (inactive)	> 100 µM (inactive)	> 100 µM (inactive)	> 100 µM (inactive)	> 100 µM (inactive)	> 100 µM (inactive)	> 100 µM (inactive)
Cc1cc(S(=O)(=O)Nc2nc3ccccc3n2-c2ccccc2)c(S)cc1Cl	> 100 µM (inactive)	> 100 µM (inactive)	> 100 µM (inactive)	> 100 µM (inactive)	> 100 µM (inactive)	> 100 µM (inactive)	69.7 µM (inactive)	87.5 µM (inactive)	> 100 µM (inactive)	> 100 µM (inactive)		> 100 µM (inactive)	56.5 µM (inactive)	> 100 µM (inactive)	> 100 µM (inactive)	> 100 µM (inactive)	> 100 µM (inactive)	> 100 µM (inactive)	> 100 µM (inactive)	> 100 µM (inactive)
